Measured values: US6759238B1, “Multidrug resistance associated proteins and uses thereof” (priority 1999, dated 2004)
Values joined by “and” are separate entries in the source; they are usually repeats but may differ in a detail not shown here. Equal values may be shown once. Read-outs that look alike come from different tables or passages of the source.

Experiments:
[1] = system: AZTMP efflux in CEM-SS cells; experiment: Effect of inhibitors of ATP-coupled transporters on AZTMP efflux; type: cell-based, human; details: PGA1 50 μM, DPM 10 μM
Procedure: (§1) The suspension was centrifuged at 3,300 rpm for 7 minutes. All but 1 ml of the supernatant medium containing the free drug was aspirated. […] The cell pellet was then washed with ice-cold medium and resuspended at the same concentration in drug-free medium and maintained at 37° C.

[2] = system: AZTMP efflux in CEM-r1 cells; experiment: as above; type: cell-based, human; details: PGA1 50 μM, DPM 10 μM
Procedure: as §1

CEM-SS cells [3] = experiment: Phosphorylation of AZT; type: in vitro ADME, human; details: 10 μM AZT
Procedure: (§2) The appearance of the phosphorylated metabolites into the medium was also determined in both the cell lines. AZTDP and AZTTP were not detected in the medium of either CEM-SS or CEM-r1 cells. However, the amount of AZTMP accumulated in the media was approximately 3-fold higher in CEM-r1 cells than in CEM-SS cells.
(§3) The cartridges were conditioned with 10% MeOH Ammonium Phosphate Buffer (5 mM, pH 4.0). The sample was loaded onto the column. […] AZTDP and AZTTP were eluted with 10% MeOH Ammonium Phosphate Buffer (700 mm, pH 4.6).

CEM-r1 cells [4] = experiment: Phosphorylation of AZT; type: in vitro ADME, human; details: for Extracellular Concentration / Intracellular Concentration: CEM-r1, 10 μM AZT
Procedure: as §2, §3

[5] = Efflux of [3H]-AZT and its metabolites; type: in vitro ADME, human; design: half-life: dose or concentration left out as unconfirmed; details: human, CEMss, read-out: Efflux kinetics, AZTMP t½
Procedure: (§4) Cells were incubated for 60 minutes with [^3H]-AZT (10 μM) after which they were washed free of radioactivity, resuspended in drug-free medium and the intracellular and the extracellular concentration of [^3H]-AZT were measured. […] At least 80% of the AZTMP present intracellularly in CEM-r1 cells was excreted into the medium in 10 minutes (FIG. 6A).
(§5) Referring to Table 6 in greater detail, efflux kinetics were studied. Transport analysis of PMEA was conducted as previously described^48. […] The cells were then washed free of radioactivity and then incubated in drug-free medium in the presence of sodium azide and 2-deoxy-D-glucose. At various time periods, the amount of intracellular AZTMP was measured. As reported in Table 6, depletion of ATP led to an inhibition of AZTMP efflux (i.e. a significant accumulation of AZTMP in the CEM-r1 cells but not in the CEM-SS cells).
as §1, with “C. […] An aliquot of the top layer (cell free media) was analyzed for the quantitation of AZT and its metabolites.” for “C.”

CEM-SS cells [6] = experiment: Efflux of [3H]-AZT and its metabolites; type: in vitro ADME, human; design: half-life: dose or concentration left out as unconfirmed; details: CEMss, no treatment, after loading with [3H]-AZT
Procedure: as §4, §5
as §1, with “C. […] An aliquot of the top layer (cell free media) was analyzed for the quantitation of AZT and its metabolites.” for “C.”

[7] = Efflux of [3H]-AZT and its metabolites; type: in vitro ADME, human; details: human, read-out: Efflux kinetics, AZTMP t½
Procedure: as §4, §5
as §1, with “C. […] An aliquot of the top layer (cell free media) was analyzed for the quantitation of AZT and its metabolites.” for “C.”

CEM-r1 cells [8] = experiment: Efflux of [3H]-AZT and its metabolites; type: in vitro ADME, human
Procedure: as §4, §5
as §1, with “C. […] An aliquot of the top layer (cell free media) was analyzed for the quantitation of AZT and its metabolites.” for “C.”

[9] = CEMr-1, no treatment, after loading with [3H]-AZT

SMILES: CCCCC[C@H](O)/C=C/[C@H]1C=CC(=O)[C@@H]1CCCCCCC(=O)O [PGA1, prostaglandin A1]
- Effect on efflux of AZTMP [1]: no effect
- Effect on efflux of AZTMP [2]: markedly inhibited

SMILES: Cc1cn([C@H]2C[C@H](N=[N+]=[N-])[C@@H](COP(=O)(O)O)O2)c(=O)[nH]c1=O [AZTMP, azido-thymidine monophosphate]
- Extracellular Concentration (CEM-SS cells [3]; 4 hours): 46 nM
- Intracellular Concentration (CEM-SS cells [3]; 4 hours): 89 µM
- Extracellular Concentration (CEM-SS cells [3]; 8 hours): 151 nM
- Intracellular Concentration (CEM-SS cells [3]; 8 hours): 95 µM
- Extracellular Concentration (CEM-SS cells [3]; 24 hours): 555 nM
- Intracellular Concentration (CEM-SS cells [3]; 24 hours): 50 µM
- Amount accumulated in the media, CEM-r1 vs CEM-SS (CEM-r1 cells [4]; 10 μM AZT): approximately 3 fold
- Extracellular Concentration (CEM-r1 cells [4]; 4 hours): 132 nM
- Intracellular Concentration (CEM-r1 cells [4]; 4 hours): 13.6 µM
- Extracellular Concentration (CEM-r1 cells [4]; 8 hours): 420 nM
- Intracellular Concentration (CEM-r1 cells [4]; 8 hours): 15.9 µM
- Extracellular Concentration (CEM-r1 cells [4]; 24 hours): 1716 nM
- Intracellular Concentration (CEM-r1 cells [4]; 24 hours): 12.3 µM
- half-life at 10 μM ([5]; Azide + Deoxyglucose): 16.3 min
- half-life ([5]; no treatment, after loading with [3H]-AZT): 17.5 min
- Efflux kinetics, AZTMP t½ (CEM-SS cells [6]): 17.1 min
- half-life at 10 μM ([7]; CEMr-1, Azide + Deoxyglucose): 18.1 min
- half-life at 10 μM [7, 9]: 4.5 min
- Intracellular AZTMP excreted into the medium (CEM-r1 cells [8]; CEM-r1, in 10 minutes): At least 80%
- Efflux kinetics, AZTMP t½ (CEM-r1 cells [8]; [9]): 4 min and 4.3 min
